We go through two compounds from US20230339977A1, “SUBSTITUTED HETEROARYL COMPOUND, AND COMPOSITION AND APPLICATION THEREOF” (SUNSHINE LAKE PHARMA CO., LTD., priority 2020, published 2023).

For one series, the system named is P-STAT3. Briefly: Effect of TYK2 inhibitor on P-STAT3 expression in PBMC induced by IFN-α (Table 3, P-STAT3 (h)). It is filed as cell-based. The note with it: Homo sapiens; P-STAT3 by ELISA, PBMC stimulated with IFN-α 5000 U/mL. The procedure:
Whole blood was collected from healthy subjects, anticoagulated with heparin sodium, and PBMC (human peripheral blood mononuclear cells) were extracted. PBMC were seeded in 96-well culture plates at a density of 1*106/well. The initial concentration of the positive drug BMS986165 was 1000 nM, after diluting 10 times, the positive drug BMS986165 was diluted 8 concentrations by 3 times; the concentration of the other tested compounds was 333 nM. Positive wells and negative wells were added with the same volume of DMSO as the compound, and the final concentration of DMSO was 0.5%. After the compound was added, the cells were incubated at 37° C. for 1 h, and then stimulated by the addition of IFN-α at a final concentration of 5000 U/mL. An equal volume of medium was added to the negative wells and incubated for 15 min. The cells were centrifuged to remove the supernatant, and lysed, and the P-STAT3 was measured according to the instructions of the ELISA kit, the absorbance was read at 450 nm, and the IC50 value or inhibition rate was calculated.
CTLL-2, P-STAT3 and TF-1 cells were seeded in a 96-well culture plate at a density of 20,000/well with 90 µL per well, and the blank well was an equal amount of complete medium. […]

The next series deals with TF-1 cells. Briefly: Inhibitory effect on TF-1 cell proliferation. It is filed as cell-based. The note with it: Homo sapiens, alamar blue, read-out: IC50 (nM) TF-1 (h). The procedure: TF-1 cells were seeded in a 96-well culture plate at a density of 20,000/well with 80 µL per well, the blank well was an equal amount of complete medium, and 10 µL of the compound dilution solution was added to the 96-well plate B1-11, C1-11, E1-11, F1-11, positive and negative wells were added with 5% DMSO medium equal to the volume of the compound, and the final concentration of DMSO was 0.5%. After 30 min, GM-CSF with a final concentration of 2 ng/mL was added to rows B, C, and D (positive wells), and the remaining wells (rows E, F, and G) were added with the same volume of medium as cytokines (negative wells). After incubation for 44 h at 37° C. in 5% CO2, alamar blue was added, the plate was incubated for 4 h, the fluorescence intensity of each well under the conditions of […], 580 nm wavelength was measured, and the IC50 value was calculated.
CTLL-2, P-STAT3 and TF-1 cells were seeded in a 96-well culture plate at a density of 20,000/well with 90 µL per well, and the blank well was an equal amount of complete medium. 10 ul of different compound dilutions were added to each plate row BC, DE, and FG, and 5% DMSO medium with equal volume of the compound was added to positive wells and negative wells, and the final concentration of DMSO was 0.5%. […]

The subject of another series is CTLL-2 cells. In words: Inhibitory effect on CTLL-2 cell proliferation. It is filed as cell-based. To be noted: alamar blue, read-out: IC50 (nM) CTLL-2 (h). The method, then:
CTLL-2, P-STAT3 and TF-1 cells were seeded in a 96-well culture plate at a density of 20,000/well with 90 µL per well, and the blank well was an equal amount of complete medium. 10 ul of different compound dilutions were added to each plate row BC, DE, and FG, and 5% DMSO medium with equal volume of the compound was added to positive wells and negative wells, and the final concentration of DMSO was 0.5%. After incubating in a 37° C. incubator for 20 h, alamar blue was added, the plate was incubated for 4 h, the fluorescence intensity of each well under the conditions of […], 580 nm wavelength was measured, and the IC50 value was calculated.

For a further series, the system named is JAK1/TYK2. Briefly: Cell level activity test of JAK1/TYK2 (IFN-α induced STAT3 phosphorylation in PBMC). Type of series: cell-based. The note with it: Homo sapiens; P-STAT3 by ELISA in PBMC, compound 1 h, IFN-α 5000 U/mL 15 min; read-out: IC50 nM (JAK 1 /TYK2). The procedure: IFN-α can induce the phosphorylation of STAT3 downstream of JAK1/TYK2 in PBMC, and by measuring the level of STAT3 phosphorylation, the activity of the compound on JAK1/TYK2 at the cell level can be reflected.
Whole blood was collected from healthy subjects, anticoagulated with heparin sodium, and PBMC (human peripheral blood mononuclear cells) were extracted. PBMC were seeded in a 96-well culture plates at a density of 1*106/well. Positive wells and negative wells were added with the same volume of DMSO as the compound, and the final concentration of DMSO was 0.5%. The compounds were incubated with the cells at 37° C. for 1 h, and then stimulated by adding IFN-α at a final concentration of 5000 U/mL, an equal volume of medium was added to the negative wells, and incubated for 15 min. The cells were centrifuged to remove the supernatant, then lysed, and P-STAT3 was measured according to the instructions of the ELISA kit, the absorbance was read at 450 nm, and the IC50 value or inhibition rate was calculated.

Series [1] is described as follows: Stability in human liver microsomes. Type of series: in vitro ADME. The method, then:
(§1) The stability of the compounds of the present invention in human and rat liver microsomes can be tested by the following two methods:
(§2) Human or rat liver microsomes were incubated in polypropylene tubes in duplicate wells. A typical incubation mixture included human or rat liver microsomes (0.5 mg protein/mL), target compound (5 µM), and a total volume of 200 µL of NADPH (1.0 mM) potassium phosphate buffer (PBS, 100 mM, pH 7.4), the compound was dissolved in DMSO and diluted with PBS, the final concentration of the DMSO solution was 0.05%. Human or rat liver microsomes were incubated at 37° C. in an air-connected water bath. After pre-incubation for 3 minutes, […] was added to start the reaction. The same volume of ice-cold acetonitrile was added to terminate the reaction at different time points (0, 5, 10, 15, 30 and 60 min). Samples were stored at -80° C. until LC/MS/MS analysis.
(§3) The linear concentration range of each target compound was determined, and then, the concentration of the target compounds in the human or rat liver microsomes incubation mixture was determined by LC/MS/MS method.
(§4) Parallel incubations were performed using denatured microsomes as a negative control and dextromethorphan (70 µM) as a positive control. Negative control was incubated at 37° C., the reaction was terminated at different time points (0, 15 and 60 minutes); positive control was incubated at 37° C., the reaction was terminated at different time points (0, 5, 10, 15, 30 and 60 minutes). Positive and negative control samples were used in each assay to ensure the integrity of the microsomal incubation system.
(§5) In addition, the stability data of the compounds of the present invention in human or rat liver microsomes can also be obtained from the following tests:
(§6) Human or rat liver microsomes were incubated in polypropylene tubes in duplicate wells. A typical incubation mixture included human or rat liver microsomes (final concentration: 0.5 mg protein/mL), target compound (final concentration: 1.5 µM) and a total volume of 30 µL of K-buffer solution (containing 1.0 mM EDTA, 100 mM, pH 7.4). Compounds were dissolved in DMSO and diluted with K-buffer solution, the final concentration of DMSO was 0.2%. […]
(§7) For each reaction, in vivo intrinsic hepatic clearance CLint is extrapolated by plotting the compound concentration (expressed as a percentage) in human or rat liver microsomal incubations as a percentage relative to time zero (ref.: Naritomi Y, Terashita S, Kimura S, Suzuki A, Kagayama A, Sugiyama Y. Prediction of human hepatic clearance from in vivo animal experiments and in vitro metabolic studies with liver microsomes from animals and humans. Drug Metabolism and Disposition 2001, 29: 1316-1324.).

Series [2] can be described thus: Stability in rat liver microsomes. It is filed as in vitro ADME. The method, then:
as §1, §2, §3, §4, §5, §6, §7

Series [3] in a line: Pharmacokinetic evaluation in rats after intravenous injection and oral administration. Type of series: in vivo. To be noted: rat, plasma; for AUC(0-t): read-out: PK AUClast; for Cmax: read-out: PK Cmax; for half-life: read-out: PK T½ (converted). The method, then: The analytical LC/MS/MS system includes an Agilent 1200 series vacuum degasser, a binary syringe pump, an orifice plate autosampler, a column oven, and an Agilent G6430 triple quadrupole mass spectrometer with an electrospray ionization (ESI) source.
Agilent XDB-C18, 2.1 × 30 mm, 3.5 µM column was used to analysis, 5 µL sample was injected. Analytical conditions: Mobile phases were 0.1% formic acid in water (A) and 0.1% formic acid in methanol (B). The flow rate was 0.4 mL/min.
In addition, Agilent 6330 series LC/MS/MS spectrometer was used for analysis, equipped with G1312A binary syringe pump, G1367A automatic sampler and G1314C UV detector; LC/MS/MS spectrometer used ESI radiation source. Optimum analysis was achieved using standards with appropriate cation model processing and MRM conversion for each analyte. A Capcell MP-C18 column, 100 × 4.6 mm I.D., 5 µM (Phenomenex, Torrance, California, USA) was used during the analysis. Mobile phase was 5 mM ammonium acetate, 0.1% methanol in water (A): 5 mM ammonium acetate, 0.1% methanol in acetonitrile (B) (70/30, v/v); flow rate was 0.6 mL/min; column temperature was maintained at room temperature; 20 µL of sample was injected.
The present invention evaluates the pharmacokinetic studies of the compounds of the present invention in mice, rats, dogs or monkeys. The compounds of the present invention were administered in the form of aqueous solution or 2% HPMC + 1% Tween-80 aqueous solution, 5% DMSO + 5% saline solution, 4% MC or capsule. For intravenous administration, animals were dosed at about 0.5, 0.6, 1 or 2 mg/kg. The oral doses (p.o.) were 5 or 10 mg/kg for rats and mice, and 10 mg/kg for dogs and monkeys. Bloods (0.3 mL) were taken at time points 0.25, 0.5, 1.0, 2.0, 3.0, 4.0, 6.0, 8.0, 12 and 24 h and centrifuged at 3,000 or 4,000 rpm for 10 min. Plasma solutions were collected and stored at -20° C. or -70° C. until LC/MS/MS analysis as described above. […] Table 2 is the experimental results of the pharmacokinetic characteristics of the compounds provided in the examples of the present invention in rats.

[4] abbreviates: pH 7.4, in vivo intrinsic hepatic clearance extrapolated.

Like-named read-outs stand apart in the source and are kept apart here. Where only a bound is given, the exact number is not on record here.

With `CC(=O)Nc1cc2c(-c3ccc4c(n3)C3(CCOC3)OCC4)cn(C)c2cn1` (stereo not drawn) [Example 3, N-(1-Methyl-3-(4,5,5′,6′-Tetrahydro-2H-Spiro[Furan-3,8′-Pyrano[3,4-b]Pyridine]-2′-yl)-1H-Pyrrolo[2,3-c]Pyridin-5-yl)Acetamide], the IC50 in the series with P-STAT3 is 21.4 nM; in the series on TF-1 cells it was 5290 nM; in the series on CTLL-2 cells, over 10000 nM; in the series on JAK1/TYK2 it was 21.4 nM.

Turning to `COc1cc(-c2cn(C)c3cnc(NC(C)=O)cc23)nc2c1COC21CCOC1` (stereo not drawn) [Example 1, N-(3-(4′-methoxy-4,5-dihydro-2H,5′H-spiro[furan-3,7′-furo[3,4-b]pyridin]-2′ -yl)-1-methyl-1H-pyrrolo[2,3-c]pyridin-5-yl)acetamide], the half-life was 1.92 h in series [1] (human, pH 7.4, read-out: Human T½); 2.56 h in series [2] (rat, pH 7.4, read-out: Rat T½); 1.24 h in series [3] (IV 1 mg/kg); 3.11 h in series [3] (PO 5 mg/kg). The CLint scaled is 15.1 mL/min/kg in series [1] (setting [4]) and 16.2 mL/min/kg in series [2] (setting [4]). Besides, the AUC(0-t) in series [3] (IV 1 mg/kg) was determined as 1650 ng·h/mL; in series [3] (PO 5 mg/kg), 8810 ng·h/mL. In addition, the Cmax in series [3] (IV 1 mg/kg) came out at 1170 ng/mL; in series [3] (PO 5 mg/kg), 2650 ng/mL. Also, the bioavailability in series [3] (oral bioavailability, PO 5 mg/kg) was 107%.
